Here are results for five compounds from patent US20230159468A1, “NOVEL FORMS OF PRACINOSTAT DIHYDROCHLORIDE” (Macfarlan Smith Limited, priority 2020, published 2023).

Structures are written as SMILES. ≈ marks a conversion by molar mass, not a printed value. Where “and” joins values, the source holds several entries; their conditions need not be identical. Equal entries are not always repeated. Where two headings read alike, the source gives them in different places.

Holding throughout (type): physicochemical
Data set [1] can be described thus: Solubility studies in pH buffer at 37° C. with HPLC analysis. As to conditions: for solubility at 1 h / solubility at 4 h: pH buffer, 37 °C, thermodynamic from solid; for Observation-1 hr / Observation-4 hr: ~6 mg in 5 mL. On the procedure:
Solubility studies are conducted on the pracinostat diHCl co-crystal with fumaric acid according to the following method:
1. Weigh out ˜6 mg pracinostat diHCl co-crystal with fumaric acid in 5 mL pH buffer;
2. Stir samples at 37° C.;
3. After 1 hour, test and record pH, then remove a 2 mL sample for HPLC analysis;
4. Adjust pH of remaining solution using 0.2M NaOH or HCl, if necessary;
5. After 4 hours, test and record pH, then remove a 2 mL sample for HPLC analysis.
The solubility data are collected using an Agilent 1100 Series HPLC system and analyzed using Chemstation software. The method details are listed below.

The nature of data set [2]: Dynamic vapor sorption (DVS) with XRPD analysis post-DVS. As to conditions: for Solid form by XRPD analysis post-DVS: after DVS; for DVS weight change / Hygroscopicity by DVS: between 0-90% RH. The source says:
Techniques for characterizing crystal and amorphous forms include but are not limited to differential scanning calorimetry (DSC), thermal gravimetric analysis (TGA), dynamic vapor sorption (DVS), X-ray powder diffractometry (XRPD), single crystal X-ray diffraction (SCXRD), proton nuclear magnetic resonance (^1H-NMR), Fourier transform infrared spectroscopy (FTIR Spectroscopy), and Optical Microscopy.

Data set [3] in a line: Stability studies at 40° C./75% RH, evidenced by XRPD. As to conditions: open vial covered with Kimwipes and sealed vial.
Data set [4] is described as follows: Solubility in solvent mixture of isopropyl alcohol and water. As to conditions: organic solvent or mixture, isopropyl alcohol:water about 8:1 (v/v), about 58° C. The source says: In one embodiment, the volume ratio of isopropyl alcohol to water in the solvent mixture is about 7-9:1; particularly about 8:1. In one embodiment, the solution of pracinostat diHCl is a saturated solution. […] Another embodiment optionally further comprises filtering the combination of pracinostat diHCl and solvent mixture to ensure no particles remain, i.e., to obtain the solution of pracinostat diHCl. In a particular embodiment, the weight to volume ratio of pracinostat diHCl to the solvent mixture is about 84-104 mg:1 mL; particularly about 94 mg:1 mL, wherein if the pracinostat diHCl is not fully dissolved in the solvent mixture, the combination of pracinostat diHCl and solvent mixture is filtered to obtain the solution of pracinostat diHCl. In one embodiment, the weight to volume ratio of Eudragit RS PO to the solution of pracinostat diHCl is about 3.75-6.25 mg:1 mL. In one embodiment, the weight ratio of Eudragit RS PO to pracinostat diHCl is about 1 mg: 14-16 mg. Another embodiment further comprises applying heating during the combining or using a solvent mixture that is heated. In another embodiment, the heating occurs at about 50-70° C. (particularly about 60° C.), or the solvent mixture is heated to about 50-70° C. (particularly about 60° C.). In one embodiment, the cooling is to about 0-10° C., particularly to about 5° C. […]

The mark [5] stands for this setting: starting pH 1.75 buffer, single experiments.
The mark [6] stands for this setting: starting pH 7.26 buffer, single experiments.

In the case of `CCCCc1nc2cc(/C=C/C(=O)NO)ccc2n1CCN(CC)CC`, the solubility at 1 h in data set [1] (pH 1.75, simulated gastric fluid, starting pH 1.75 buffer, single experiments, read-out: Solubility (mg/mL) 1 hr) is over 1.07 mg/mL; in data set [1] (pH 7.26, aqueous buffer, starting pH 7.26 buffer, average of Exp. 4-6, read-out: Avg. Solubility ± STD (mg/mL) 1 hr) it was 0.16 ± 0.01 mg/mL (≈ 446 µM); in data set [1] (pH 7.26, aqueous buffer, starting pH 7.26 buffer, single experiments, read-out: Solubility (mg/mL) 1 hr) it was 0.14 mg/mL (≈ 391 µM). In addition, the solubility at 4 h in data set [1] (pH 1.75, simulated gastric fluid, starting pH 1.75 buffer, single experiments, read-out: Solubility (mg/mL) 4 hr) is over 1.08 mg/mL; in data set [1] (pH 7.26, aqueous buffer, starting pH 7.26 buffer, average of Exp. 4-6, read-out: Avg. Solubility ± STD (mg/mL) 4 hr), 0.1 ± 0.02 mg/mL (≈ 279 µM); in data set [1] (pH 7.26, aqueous buffer, starting pH 7.26 buffer, single experiments, read-out: Solubility (mg/mL) 4 hr) it was 0.08 mg/mL (≈ 223 µM).
Regarding `CCCCc1nc2cc(/C=C/C(=O)NO)ccc2n1CCN(CC)CC` [pracinostat diHCl co-crystal with L-arginine], in data set [2], the “Solid form by XRPD analysis post-DVS” value is reported as “not stable”, the DVS weight change is reported as about 12% and the “Hygroscopicity by DVS” value is recorded as “hygroscopic”.
Turning to `CCCCc1nc2cc(/C=C/C(=O)NO)ccc2n1CCN(CC)CC` [pracinostat diHCl co-crystal with fumaric acid], the “Time stable (solid form, by XRPD)” value in data set [3] was “at least 9 months”. In data set [2], the “Solid form by XRPD analysis post-DVS” value is reported as “remains unchanged”, the DVS weight change is about 1.7% and the “Hygroscopicity by DVS” value is “slightly hygroscopic”. In data set [1] (setting [5]), the “Solubility (mg/mL) 1 hr” value is >0.75 mg/mL and >0.98 mg/mL; the “Solubility (mg/mL) 4 hr” value was >0.81 mg/mL and >0.98 mg/mL. Besides, in data set [1] (starting pH 1.75 buffer), the Observation-1 hr result is recorded as “Clear” and the Observation-4 hr result is recorded as “Clear”. Besides, in data set [1] (setting [6]), the “Solubility (mg/mL) 1 hr” value was 0.16 mg/mL and 0.17 mg/mL; the “Solubility (mg/mL) 4 hr” value is 0.12 mg/mL and 0.09 mg/mL. In data set [1] (starting pH 7.26 buffer), the Observation-1 hr result is listed as “Cloudy” and the Observation-4 hr entry is listed as “Cloudy”.
As for `CCCCc1nc2cc(/C=C/C(=O)NO)ccc2n1CCN(CC)CC` [pracinostat diHCl co-crystal with glycine], in data set [2], the “Solid form by XRPD analysis post-DVS” value was “remains unchanged”, the DVS weight change is listed as about 8.0% and the “Hygroscopicity by DVS” value was “hygroscopic”.
For `CCCCc1nc2cc(/C=C/C(=O)NO)ccc2n1CCN(CC)CC` [pracinostat diHCl, (E)-3-(2-Butyl-1-(2-(diethylamino)ethyl)-1H-benzo[d]imidazol-5-yl)-N-hydroxyacrylamide], the solubility in data set [4] was about 82.6 mg/mL.
